Results on one compound are retold here after patent US8258116B2, “Combination therapy for the treatment of HCV infection” (Vertex Pharmaceuticals Incorporated, priority 2007, dated 2012).

Where only a bound is given, the exact number is not on record here.

Test [1] deals with HCV replicon Wild Type (mADE). The experiment in a line: 2-Day HCV Replicon IC50 Assay, wild type replicon. It is filed as cell-based. To be noted: Wild Type replicon. On the procedure: (§1) Huh-7 cells were propagated in Dulbecco's modified Eagle's medium (DMEM, JRH Biosciences, Lenexa, Kans.) supplemented with 10% heat-inactivated FBS (fetal bovine serum), 2 mM L-glutamine, and nonessential amino acids (JRH). The cells were transfected with an in vitro transcribed HCV replicon RNA identical to replicon 1377neo/NS3-3′/wt as described by Lohmann et al. (1999). Stable cell clones were selected and maintained in the presence of 250 μg/mL G418 (Invitrogen, Carlsbad, Calif.). […] The HCV NS3 protease variant replicons were constructed in the background of the mADE wild-type replicon as described previously [Chao Lin et al., “In Vitro Resistance Studies of Hepatitis C Virus Serine Protease Inhibitors, VX-950 and BILN 2061: Structural Analysis Indicates Different Resistance Mechanisms,” Journal of Biological Chemistry, 279(17); pp. 17508-17514 (2004)]. The replicon cells were propagated in DMEM supplemented with 10% FBS, 2 mM L-glutamine, nonessential amino acids, and 250 μg/mL G418. The cells were split twice per week in fresh media upon reaching confluence. There are approximately 200-300 copies of HCV RNA per 24-2 replicon cell.
(§2) HCV replicon RNA from cells was measured using the Quantigene Discover XL kit (Panomics Inc., Fremont Calif.) as per the manufacturer's instructions. Briefly, compound-treated replicon cells were lysed and immobilized on to capture plates using HCV specific oligonucleotides (designed based on the 5′ UTR region of HCV 1b genome sequence AJ238799 in the GenBank database) over night and the relative amounts of captured RNA was measured using oligonucleotide probe sets as per the manufacturer's instructions.
(§3) On the day prior to the assay, 10,000 replicon cells were plated per well of a 96-well plate and allowed to attach and grow overnight in DMEM (Invitrogen, Carlsbad, Calif.) supplemented with 10% heat-inactivated FBS (JRH Biosciences, Lenexa, Kans.), 2 mM L-glutamine (Invitrogen), nonessential amino acids (Invitrogen) and 250 μg/ml G418 (Invitrogen). Next day, the medium was removed and antiviral agents that were serially diluted in DMEM containing 2% FBS and 0.5% DMSO (Sigma Chemical Co., St. Louis, Mo.) without G418, was added. The replicon cells were incubated with the antiviral agents for 48 h. HCV replicon RNA from cells was measured using the Quantigene Discover XL kit (Panomics Inc., Fremont Calif.) as per the manufacturer's instructions. Briefly, compound-treated replicon cells were lysed and immobilized onto capture plates using HCV specific oligonucleotides overnight and the relative amounts of captured RNA was measured using oligonucleotide probe sets as per the manufacturer's instructions. Unless indicated otherwise, each data point represents the average of three replicates. The IC50 is the concentration of the compound at which the HCV replicon RNA level in cells is reduced by 50% as compared to the untreated replicon cell controls. To monitor the effect of compounds on cell proliferation or cell viability, replicon cells were treated with serially diluted compounds for 48 h, after which cell viability was determined using a CellTiter Glo assay (Promega, Madison, Wis.). Each CC50 is derived from at least two replicates and is the concentration of the compound at which the number of viable cells is reduced by 50% as compared to untreated cell controls. The IC50 and CC50 was determined using 4-parameter curve fitting in the SoftMax Pro program (Molecular Devices, Sunnyvale, Calif.).
(§4) The sensitivity of NS3 protease variants to ribavirin and interferon was assessed in a 2-Day HCV Replicon IC50 Assay.

The subject of test [2] is HCV NS3 protease variant replicon R155K. The test can be described thus: microbe, parasite or virus in culture. It is filed as cell-based. The protocol:
as §1, §2, §3, §4

The test system of test [3] is HCV NS3 protease variant replicon T54A. The experiment in a line: microbe, parasite or virus in culture. It is filed as cell-based. On the procedure:
as §1, §2, §3, §4

In test [4] the test system is HCV NS3 protease variant replicon V36A. The test can be described thus: microbe, parasite or virus in culture. It is filed as cell-based. On the procedure: as §1, §2, §3, §4
Test [5] concerns HCV NS3 protease variant replicon V36M+R155K. The experiment in a line: microbe, parasite or virus in culture. It is filed as cell-based. To be noted: V36M-R155K; ratio of mutant IC50 to Wild type IC50 for the same inhibitor. The protocol: as §1, §2, §3, §4
Test [6] has as its system HCV NS3 protease variant replicon V36M. The experiment in a line: microbe, parasite or virus in culture. It is filed as cell-based. The protocol:
as §1, §2, §3, §4

For test [7], the system named is HCV NS3 protease variant replicon A156V. The test can be described thus: 2-Day HCV Replicon IC50 Assay, A156V. It is filed as cell-based. On the procedure:
as §1, §2, §3, §4
In general terms: A replicon is a self-replicating genome or part of one, used to study replication in cells.

A further test has as its system HCV genotype 1. The experiment in a line: phase 1b trial (Study VX04-950-101). It is filed as in vivo. To be noted: subjects infected with HCV genotype 1, phase 1b. The source says: The degree to which a subject responds to treatment and the rate at which viral rebound is observed could in part be due to genotypic differences in sensitivity to the protease inhibitor. The rapid replication rate of HCV, along with the poor fidelity of its polymerase, gives rise to an accumulation of mutations throughout its genome [P. Simmonds, “Genetic diversity and evolution of hepatitis C virus—15 years on,” J. Gen. Virol., 85, pp. 3173-88 (2004)]. The degree to which sequence variability in the protease region affects the catalytic efficiency of the enzyme or the binding of an inhibitor is not known. Additionally, the generation of numerous viral genomes with remarkable sequence variation presents potential problems of emerging drug resistant virus in subjects treated with antiviral therapy. Indeed, drug resistance against antiviral drugs, such as HIV protease inhibitors, is well documented [Johnson et al., Top. HIV Med., 12, pp. 119-24 (2004)]. […] Agents Chemother., 48, pp. 2260-6 (2004); Trozzi et al., “In vitro selection and characterization of hepatitis C virus serine protease variants resistant to an active-site peptide inhibitor,” J. Virol. 77, pp. 3669-79 (2003)]. […]

The mark [8] stands for this setting: Hepatitis C virus, read-out: Avg. IC50 ± STDEV.

The IC50 is the concentration at which inhibition is half-maximal. Regarding `CCC[C@H](NC(=O)[C@@H]1[C@H]2CCC[C@H]2CN1C(=O)[C@@H](NC(=O)[C@@H](NC(=O)c1cnccn1)C1CCCCC1)C(C)(C)C)C(=O)C(=O)NC1CC1` [VX-950], the IC50 in test [1] (Hepatitis C virus, Table 8, read-out: Avg. IC50 ± STDEV) was 460 ± 101 nM; in test [2] (setting [8]) it was 3.59 ± 0.283 µM; in test [3] (setting [8]) it was 3.04 ± 0.819 µM; in test [4] (setting [8]), 3.57 ± 1.05 µM; in test [6] (setting [8]) it was 3.38 ± 0.775 µM; in test [7] (setting [8]), > 30 µM. Besides, the “Fold Change” value is given as 1 ± 0.2 in test [1] (ratio of IC50 to Wild type IC50 for the same inhibitor); 7.8 ± 0.6 in test [2] (R155K, ratio of mutant IC50 to Wild type IC50 for the same inhibitor); 6.6 ± 1.8 in test [3] (T54A, ratio of mutant IC50 to Wild type IC50 for the same inhibitor); 7.7 ± 2.3 in test [4] (V36A, ratio of mutant IC50 to Wild type IC50 for the same inhibitor); “≧65.2” in test [5]; 7.3 ± 1.7 in test [6] (V36M, ratio of mutant IC50 to Wild type IC50 for the same inhibitor). In test [7] (A156V, ratio of mutant IC50 to Wild type IC50 for the same inhibitor), the “Fold Change” value is reported as >65.2. In addition, in the test with HCV genotype 1, the antiviral activity entry is recorded as “substantial antiviral activity”.
